From publication PMC12250785, “Synthesis of Novel 7-Phenyl-2,3-Dihydropyrrolo[2,1-b]Quinazolin-9(1H)-ones as Cholinesterase Inhibitors Targeting Alzheimer’s Disease Through Suzuki–Miyaura Cross-Coupling Reaction” (Molecules, 2025)

How the values were obtained:
BChE (E.C. 3.1.1.8) = BChE (E.C. 3.1.1.8) (Equus caballus, UniProt P81908); test: biochemical; details: BChE from horse serum; Ellman method; means ± SD of triplicate independent experiments
AChE (E.C. 3.1.1.7) = AChE (E.C. 3.1.1.7) (Electrophorus electricus, UniProt O42275); test: biochemical; details: for IC50: AChE from electric eel, Ellman method, means ± SD of triplicate independent experiments; for Selectivity (BChE/AChE): BChE IC50/AChE IC50
AChE (E.C. 3.1.1.7), sequence (O42275 24-633): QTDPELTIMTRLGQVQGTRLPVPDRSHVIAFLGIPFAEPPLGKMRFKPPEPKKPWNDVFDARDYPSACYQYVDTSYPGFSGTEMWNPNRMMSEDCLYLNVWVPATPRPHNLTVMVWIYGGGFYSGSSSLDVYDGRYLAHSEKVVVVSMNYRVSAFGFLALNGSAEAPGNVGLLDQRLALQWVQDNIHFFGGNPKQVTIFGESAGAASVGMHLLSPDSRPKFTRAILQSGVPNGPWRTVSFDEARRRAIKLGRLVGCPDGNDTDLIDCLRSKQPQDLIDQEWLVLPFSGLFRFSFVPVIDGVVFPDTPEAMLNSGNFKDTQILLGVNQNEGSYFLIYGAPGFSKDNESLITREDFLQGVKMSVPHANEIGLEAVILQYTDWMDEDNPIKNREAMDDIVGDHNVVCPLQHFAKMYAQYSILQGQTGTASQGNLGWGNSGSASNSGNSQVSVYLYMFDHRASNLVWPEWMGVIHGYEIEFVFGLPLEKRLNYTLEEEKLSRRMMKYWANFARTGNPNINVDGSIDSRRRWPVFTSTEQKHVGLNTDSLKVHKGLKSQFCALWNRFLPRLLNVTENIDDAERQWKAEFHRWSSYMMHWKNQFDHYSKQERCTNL
Protocol: The results are presented as IC50 values.
The total volume of the reaction was 200 μL, consisting of 2 μL of sample, 138 μL of Tris-HCl buffer solution containing acetylcholinesterase (final concentration of 0.03 U/mL), and a control consisting of Tris-HCl buffer solution without the enzyme. The reaction was incubated at room temperature for 10 min. Following this, 20 μL of […] (5 mM) was added, and the reaction was conducted at 37 °C for an additional 10 min.

[1] = Solubility in common organic solvents; assay type: physicochemical

BChE (E.C. 3.1.1.8), sequence (P81908 whole entry): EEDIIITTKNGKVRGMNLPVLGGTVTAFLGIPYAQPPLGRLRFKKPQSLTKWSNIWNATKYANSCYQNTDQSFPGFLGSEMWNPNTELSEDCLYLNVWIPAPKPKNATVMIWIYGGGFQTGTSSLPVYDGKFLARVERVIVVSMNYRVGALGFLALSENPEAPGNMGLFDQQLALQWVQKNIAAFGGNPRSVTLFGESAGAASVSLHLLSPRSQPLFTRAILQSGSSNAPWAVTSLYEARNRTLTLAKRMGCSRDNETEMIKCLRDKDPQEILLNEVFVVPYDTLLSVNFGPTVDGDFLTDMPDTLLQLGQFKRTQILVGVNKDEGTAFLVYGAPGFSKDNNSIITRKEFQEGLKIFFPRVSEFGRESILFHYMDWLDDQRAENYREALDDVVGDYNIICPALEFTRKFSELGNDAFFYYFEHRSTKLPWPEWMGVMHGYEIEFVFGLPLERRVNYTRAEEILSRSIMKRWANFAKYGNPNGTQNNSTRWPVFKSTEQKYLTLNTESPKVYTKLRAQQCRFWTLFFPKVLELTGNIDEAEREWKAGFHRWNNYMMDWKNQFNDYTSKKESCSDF

Compound | IC50 (BChE (E.C. 3.1.1.8)) | IC50 (AChE (E.C. 3.1.1.7)) | Selectivity (BChE/AChE) (AChE (E.C. 3.1.1.7)) | solubility in common organic solvents [1]
O=c1c2cc(-c3ccc(F)c(Cl)c3)ccc2nc2n1CCC2 [3k, 7-(3-Chloro-4-fluorophenyl)-2,3-dihydropyrrolo[2,1-b]quinazolin-9(1H)-one] | 29 ± 0.74 µM | 6.08 ± 0.26 µM | 4.8 | 
COc1cccc(-c2ccc3nc4n(c(=O)c3c2)CCC4)c1 [3h, 7-(3-Methoxyphenyl)-2,3-dihydropyrrolo[2,1-b]quinazolin-9(1H)-one] | 41.8 ± 1.28 µM | 17.7 ± 0.84 µM | 2.4 | 
O=c1c2cc(-c3ccc(F)cc3)ccc2nc2n1CCC2 [3b, 7-(4-Fluorophenyl)-2,3-dihydropyrrolo[2,1-b]quinazolin-9(1H)-one] | 15.5 ± 0.41 µM | 34.8 ± 1.21 µM | 0.5 | 
O=c1c2cc(-c3cccc(Cl)c3)ccc2nc2n1CCCC2 [4g, 2-(3-Chlorophenyl)-6,7,8,9-tetrahydro-11H-pyrido[2,1-b]quinazolin-11-one] | 22.9 ± 0.76 µM | 21.3 ± 0.88 µM | 1.1 | 
O=c1c2cc(-c3ccc(F)c(Cl)c3)ccc2nc2n1CCCC2 [4k, 2-(3-Chloro-4-fluorophenyl)-6,7,8,9-tetrahydro-11H-pyrido[2,1-b]quinazolin-11-one] | > 50 µM | > 50 µM |  | 
O=c1c2cc(-c3ccccc3C(F)(F)F)ccc2nc2n1CCCC2 [4n, 2-(2-(Trifluoromethyl)phenyl)-6,7,8,9-tetrahydro-11H-pyrido[2,1-b]quinazolin-11-one] | 43.2 ± 1.27 µM | > 50 µM |  | 
O=c1c2cc(-c3cccc4ccccc34)ccc2nc2n1CCC2 [3m, 7-(Naphthalen-1-yl)-2,3-dihydropyrrolo[2,1-b]quinazolin-9(1H)-one] | 32 ± 0.72 µM | > 50 µM |  | 
COc1ccc(Cl)cc1-c1ccc2nc3n(c(=O)c2c1)CCCC3 [4l, 2-(5-Chloro-2-methoxyphenyl)-6,7,8,9-tetrahydro-11H-pyrido[2,1-b]quinazolin-11-one] | 46.6 ± 1.45 µM | > 50 µM |  | 
CC(=O)c1cccc(-c2ccc3nc4n(c(=O)c3c2)CCC4)c1 [3i, 7-(3-Acetylphenyl)-2,3-dihydropyrrolo[2,1-b]quinazolin-9(1H)-one] | > 50 µM | 33.2 ± 1.01 µM |  | 
Cc1cccc(-c2ccc3nc4n(c(=O)c3c2)CCC4)c1 [3f, 7-(m-Tolyl)-2,3-dihydropyrrolo[2,1-b]quinazolin-9(1H)-one] | 22.8 ± 0.49 µM | 28.7 ± 0.69 µM | 0.8 | 
COc1ccc(Cl)cc1-c1ccc2nc3n(c(=O)c2c1)CCC3 [3l, 7-(5-Chloro-2-methoxyphenyl)-2,3-dihydropyrrolo[2,1-b]quinazolin-9(1H)-one] | 28.5 ± 0.46 µM | 14.7 ± 0.48 µM | 2.0 | 
Cc1ccccc1-c1ccc2nc3n(c(=O)c2c1)CCC3 [3j, 7-(o-Tolyl)-2,3-dihydropyrrolo[2,1-b]quinazolin-9(1H)-one] | 11.1 ± 0.37 µM | > 50 µM |  | 
O=c1c2cc(-c3ccccc3)ccc2nc2n1CCC2 [3n, 7-Phenyl-2,3-dihydropyrrolo[2,1-b]quinazolin-9(1H)-one] | 22.9 ± 0.57 µM | 35.9 ± 1.03 µM | 0.64 | 
COc1ccc(-c2ccc3nc4n(c(=O)c3c2)CCCC4)cc1 [4d, 2-(4-Methoxyphenyl)-6,7,8,9-tetrahydro-11H-pyrido[2,1-b]quinazolin-11-one] | > 50 µM | 33.2 ± 1.08 µM |  | 
O=c1c2cc(-c3ccc(Cl)cc3)ccc2nc2n1CCCC2 [4a, 2-(4-Chlorophenyl)-6,7,8,9-tetrahydro-11H-pyrido[2,1-b]quinazolin-11-one] | > 50 µM | > 50 µM |  | 
O=c1c2cc(-c3ccc(F)cc3)ccc2nc2n1CCCC2 [4b, 2-(4-Fluorophenyl)-6,7,8,9-tetrahydro-11H-pyrido[2,1-b]quinazolin-11-one] | > 50 µM | 34.6 ± 1.27 µM |  | 
O=c1c2cc(-c3cccc4ccccc34)ccc2nc2n1CCCC2 [4m, 2-(Naphthalen-1-yl)-6,7,8,9-tetrahydro-11H-pyrido[2,1-b]quinazolin-11-one] | > 50 µM | > 50 µM |  | 
COc1cccc(-c2ccc3nc4n(c(=O)c3c2)CCCC4)c1 [4h, 2-(3-Methoxyphenyl)-6,7,8,9-tetrahydro-11H-pyrido[2,1-b]quinazolin-11-one] | 42.3 ± 1.23 µM | 42.7 ± 1.8 µM | 1 | 
O=c1c2cc(-c3cccc(Cl)c3)ccc2nc2n1CCC2 [3g, 7-(3-Chlorophenyl)-2,3-dihydropyrrolo[2,1-b]quinazolin-9(1H)-one] | 22.2 ± 0.48 µM | 27.9 ± 0.72 µM | 0.8 | 
CC(C)(C)c1ccc(-c2ccc3nc4n(c(=O)c3c2)CCCC4)cc1 [4e, 2-(4-(tert-Butyl)phenyl)-6,7,8,9-tetrahydro-11H-pyrido[2,1-b]quinazolin-11-one] | > 50 µM | > 50 µM |  | 
CC(C)(C)c1ccc(-c2ccc3nc4n(c(=O)c3c2)CCC4)cc1 [3e, 7-(4-(tert-Butyl)phenyl)-2,3-dihydropyrrolo[2,1-b]quinazolin-9(1H)-one] | > 50 µM | > 50 µM |  | 
CC(=O)c1cccc(-c2ccc3nc4n(c(=O)c3c2)CCCC4)c1 [4i, 2-(3-Acetylphenyl)-6,7,8,9-tetrahydro-11H-pyrido[2,1-b]quinazolin-11-one] | > 50 µM | 11.1 ± 0.73 µM |  | 
Cc1ccccc1-c1ccc2nc3n(c(=O)c2c1)CCCC3 [4j, 2-(o-Tolyl)-6,7,8,9-tetrahydro-11H-pyrido[2,1-b]quinazolin-11-one] | > 50 µM | > 50 µM |  | 
O=c1c2cc(-c3ccc(C(F)(F)F)cc3)ccc2nc2n1CCC2 [3c, 7-(4-(Trifluoromethyl)phenyl)-2,3-dihydropyrrolo[2,1-b]quinazolin-9(1H)-one] | > 50 µM | > 50 µM |  | 
COc1ccc(-c2ccc3nc4n(c(=O)c3c2)CCC4)cc1 [3d, 7-(4-Methoxyphenyl)-2,3-dihydropyrrolo[2,1-b]quinazolin-9(1H)-one] | > 50 µM | 16.2 ± 0.39 µM |  | 
Cc1cccc(-c2ccc3nc4n(c(=O)c3c2)CCCC4)c1 [4f, 2-(m-Tolyl)-6,7,8,9-tetrahydro-11H-pyrido[2,1-b]quinazolin-11-one] | 10.7 ± 0.64 µM | 6.39 ± 0.31 µM | 1.7 | poor solubility
O=c1c2cc(-c3ccc(C(F)(F)F)cc3)ccc2nc2n1CCCC2 [4c, 2-(4-(Trifluoromethyl)phenyl)-6,7,8,9-tetrahydro-11H-pyrido[2,1-b]quinazolin-11-one] | > 50 µM | > 50 µM |  | 
O=c1c2cc(-c3ccc(Cl)cc3)ccc2nc2n1CCC2 [3a, 7-(4-Chlorophenyl)-2,3-dihydropyrrolo[2,1-b]quinazolin-9(1H)-one] | > 50 µM | > 50 µM |  | 
